The supplement of paper PMC11451515

Tested on: P12-Ichikawa
Assay: cell viability relative to DMSO control; higher = less cytotoxic
Conditions: 48 h
Summary of the method: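 Viability is expressed as a percentage of DMSO wells within each plate, and cell-free wells serve as background. Seeding densities in the 1536-well plates (5 μl) were 500 cells/well for NOMO1 or SEM leukemia cells and 1000 cells/well for P12-Ichikawa. Each line was adapted for at least four passages in each medium. Library compounds in DMSO were pin-dosed at 47 μM to 0.79 nM (11 points, threefold), and CellTiter-Glo One luminescence was read after 48 h at 37°C.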

[1] = HPLM + 10% dialyzed FBS, 0.000781 µM
[2] = HPLM + 10% dialyzed FBS, 0.00234 µM
[3] = HPLM + 10% dialyzed FBS, 0.00702 µM
[4] = HPLM + 10% dialyzed FBS, 0.0211 µM
[5] = HPLM + 10% dialyzed FBS, 0.0632 µM
[6] = HPLM + 10% dialyzed FBS, 0.19 µM
[7] = HPLM + 10% dialyzed FBS, 0.569 µM
[8] = HPLM + 10% dialyzed FBS, 1.71 µM
[9] = HPLM + 10% dialyzed FBS, 5.12 µM
[10] = HPLM + 10% dialyzed FBS, 15.4 µM
[11] = HPLM + 10% dialyzed FBS, 46.1 µM
[12] = RPMI 5 mM glucose + 10% FBS, 0.000781 µM
[13] = RPMI 5 mM glucose + 10% FBS, 0.00234 µM
[14] = RPMI 5 mM glucose + 10% FBS, 0.00702 µM
[15] = RPMI 5 mM glucose + 10% FBS, 0.0211 µM
[16] = RPMI 5 mM glucose + 10% FBS, 0.0632 µM
[17] = RPMI 5 mM glucose + 10% FBS, 0.19 µM
[18] = RPMI 5 mM glucose + 10% FBS, 0.569 µM
[19] = RPMI 5 mM glucose + 10% FBS, 1.71 µM
[20] = RPMI 5 mM glucose + 10% FBS, 5.12 µM
[21] = RPMI 5 mM glucose + 10% FBS, 15.4 µM
[22] = RPMI 5 mM glucose + 10% FBS, 46.1 µM
[23] = RPMI 5 mM glucose + 10% dialyzed FBS, 0.000781 µM
[24] = RPMI 5 mM glucose + 10% dialyzed FBS, 0.00234 µM
[25] = RPMI 5 mM glucose + 10% dialyzed FBS, 0.00702 µM
[26] = RPMI 5 mM glucose + 10% dialyzed FBS, 0.0211 µM
[27] = RPMI 5 mM glucose + 10% dialyzed FBS, 0.0632 µM
[28] = RPMI 5 mM glucose + 10% dialyzed FBS, 0.19 µM
[29] = RPMI 5 mM glucose + 10% dialyzed FBS, 0.569 µM
[30] = RPMI 5 mM glucose + 10% dialyzed FBS, 1.71 µM
[31] = RPMI 5 mM glucose + 10% dialyzed FBS, 5.12 µM
[32] = RPMI 5 mM glucose + 10% dialyzed FBS, 15.4 µM
[33] = RPMI 5 mM glucose + 10% dialyzed FBS, 46.1 µM

SMILES | cell viability [1] | cell viability [2] | cell viability [3] | cell viability [4] | cell viability [5] | cell viability [6] | cell viability [7] | cell viability [8] | cell viability [9] | cell viability [10] | cell viability [11] | cell viability [12] | cell viability [13] | cell viability [14] | cell viability [15] | cell viability [16] | cell viability [17] | cell viability [18] | cell viability [19] | cell viability [20] | cell viability [21] | cell viability [22] | cell viability [23] | cell viability [24] | cell viability [25] | cell viability [26] | cell viability [27] | cell viability [28] | cell viability [29] | cell viability [30] | cell viability [31] | cell viability [32] | cell viability [33]
C[S+](=O)([O-])c1ccc(-c2cnc(N)c(C(=O)Nc3ccccc3)n2)cc1 | 99.6% | 104% | 107% | 107% | 117% | 119% | 118% | 118% | 114% | 88.4% | 87.2% | 103% | 119% | 111% | 112% | 123% | 122% | 116% | 121% | 114% | 76.9% | 80.5% | 104% | 117% | 120% | 120% | 121% | 115% | 124% | 114% | 117% | 72.6% | 69.7%
CC[C@]12\C=C/CN3CC[C@]4([C@@H](N(C)C5=CC(=C(C=C45)[C@]6(C[C@H]7C[C@H](CN(C7)CC8=C6[NH]C9=C8C=CC=C9)C(C)(F)F)C(=O)OC)OC)[C@](O)([C@@H]1OC(C)=O)C(=O)OC)[C@H]23 | 91.9% | 93.3% | 92% | 69.4% | 37% | 12% | 15.3% | 13.2% | 8.31% | 8.59% | 6.21% | 93.7% | 88.8% | 85.9% | 63.7% | 18.6% | 13.9% | 20.9% | 11.4% | 8.45% | 7.91% | 5.99% | 87.4% | 83% | 83.5% | 79.3% | 51.6% | 27.1% | 26.5% | 21.5% | 16.1% | 13% | 5.7%
CC[C@H](NC(=O)[C@H](C)NC)C(=O)N1C[C@@H](O)C[C@H]1Cc1c(-c2[nH]c3cc(F)ccc3c2C[C@@H]2C[C@H](O)CN2C(=O)[C@H](CC)NC(=O)[C@H](C)NC)[nH]c2cc(F)ccc12 | 115% | 129% | 124% | 137% | 137% | 125% | 139% | 131% | 32.8% | 31.3% | 110% | – | – | – | – | – | – | – | – | – | – | – | – | – | – | – | – | – | – | – | – | – | –
